Where no end group is shown, it is not given here. [ ]: non-standard residue; d: D form. Hyp = O=C(O)[C@@H]1C[C@@H](O)CN1
Legend:
Format in all cases: cell-based
human dermal fibroblasts [1] = test: Sircol collagen assay, collagen synthesis by dermal fibroblasts; details: 0.5 mg/ml peptide, three weeks stimulation
Description: (§1) The human cells used were obtained from tebu-bio GmbH, Offenbach, Germany. The chondrocytes (Cat. No. 402-05a) or dermal fibroblasts (Cat. No. 106-05a) were first sown in 12-well culture plates and cultured at 37° C., 5% CO2 in Ham's F12 medium, to which 10% fetal calf serum, 20 U/ml penicillin-streptomycin and 50 μg/ml ascorbic acid were added. On every other day, the culture medium was replaced by new culture medium until the cells had reached 80% confluence. […] To investigate the collagen metabolism, the amount of newly synthesized collagen was determined after stimulating the cells with 0.5 mg/ml BCP for three weeks. The synthesized collagen was isolated using the Sircol assay (Article No. 054S5000, 2019, tebu-bio, Offenbach, Germany, or Biocolor Ltd., UK) according to the manufacturer's instructions. In brief, the culture medium was initially discarded and the adherent cell layers were digested with 0.1 mg pepsin solution in 0.5 M acetic acid at 4° C. overnight. The cell suspensions were neutralized by adding 100 μl of an acid-neutralizing reagent. The synthesized collagen was then separated off by adding 200 μl of an isolation and concentration solution with vigorous shaking at 4° C. overnight. After centrifugation (12,000 rpm, 10 min) and discarding the supernatant, the isolated collagen was resuspended in 1 ml of Sircol dye solution. After 30 minutes of shaking and another centrifugation, the collagen pellet was covered with 750 μl of cold acidic solid washing reagent. After another centrifugation, the supernatant was again discarded and the enriched collagen was taken up in 250 μl of alkaline solution. In each case 200 μl of the sample solutions were used for photometric quantification of the synthesized collagen. The absorbance was measured at a wavelength of 492 nm. The amount of collagen synthesized in each case was determined on the basis of standardized collagen solutions.

human chondrocytes [2] = test: Sircol collagen assay, collagen synthesis by chondrocytes; details: 0.5 mg/ml peptide, three weeks stimulation
Description: as §1

human dermal fibroblasts [3] = test: Blyscan glycosaminoglycan assay, proteoglycan synthesis by dermal fibroblasts; details: 0.5 mg/ml, two weeks stimulation; for increase in collagen synthesis (in the proteoglycan assay, dermal fibroblasts): non-hydroxylated peptides; for increase in the synthesis of proteoglycans by dermal fibroblasts compared to untreated controls: hydroxylated peptides
Description: The human cells used were obtained from tebu-bio GmbH, Offenbach, Germany. The chondrocytes (Cat. No. 402-05a) or dermal fibroblasts (Cat. No. 106-05a) were first sown in 12-well culture plates and cultured at 37° C., 5% CO2 in Ham's F12 medium, to which 10% fetal calf serum, 20 U/ml penicillin-streptomycin and 50 μg/ml ascorbic acid were added. On every other day, the culture medium was replaced by new culture medium until the cells had reached 80% confluence. […] The Blyscan glycosaminoglycan assay (Article No. 054B3000, 2019, tebu-bio, Offenbach, Germany, or Biocolor Ltd., UK) was used to determine proteoglycans. The biosynthesis of proteoglycans was determined after stimulating dermal fibroblasts for two weeks. According to the manufacturer's instructions, after discarding the culture medium, the cell layers were covered with 1 ml of papain extraction solution and incubated for three hours at 65° C. with vigorous shaking. The cell suspensions were then centrifuged (10,000 g, 10 min) and the supernatants were collected. After adding 1 ml of Blyscan dye solution and shaking (30 min), the supernatants were centrifuged again (12,000 rpm, 10 min) and then discarded. The isolated proteoglycan pellets were resuspended in 500 μl of dissociation solution. A photometric determination of the synthesized proteoglycan in 200 μl sample solution was carried out at a wavelength of 656 nm in comparison to untreated control experiments.

human chondrocytes [4] = test: Blyscan glycosaminoglycan assay, proteoglycan synthesis by chondrocytes; details: 0.5 mg/ml; for increase in the synthesis of proteoglycans by chondrocytes compared to untreated controls: non-hydroxylated peptides; for increase in collagen synthesis (in the proteoglycan assay, chondrocytes): hydroxylated peptides

Row | Substance | increase in collagen synthesis by dermal fibroblasts compared to untreated controls (human dermal fibroblasts [1]) | increase in collagen synthesis by chondrocytes compared to untreated controls (human chondrocytes [2]) | increase in collagen synthesis (in the proteoglycan assay, dermal fibroblasts) (human dermal fibroblasts [3]) | increase in the synthesis of proteoglycans by chondrocytes compared to untreated controls (human chondrocytes [4]) | increase in the synthesis of proteoglycans by dermal fibroblasts compared to untreated controls (human dermal fibroblasts [3]) | increase in collagen synthesis (in the proteoglycan assay, chondrocytes) (human chondrocytes [4])
1 | GAPGKDGVRGL [SEQ ID No. 11, collagen peptide comprising 11 amino acids] | 19% | 16% | 18% | 28% | – | –
2 | GAPGKDGVRGLTGPIGPPGPAGA [SEQ ID No. 12, collagen peptide comprising 23 amino acids] | 22% | 24% | 19% | 23% | – | –
3 | GAPGKDGVRGLTGPIGPPGPAGAPGDKGEAGPS [SEQ ID No. 2, collagen peptide comprising 33 amino acids] | 22% | 16% | 18% | 22% | – | –
4 | GPPGPAGEKGAPGADGPAGAPGTPGPQGIAGQRGV [SEQ ID No. 16, collagen peptide comprising 35 amino acids] | 22% | 31% | 18% | 18% | – | –
5 | Gly-Ala-4Hyp-Gly-Lys-Asp-Gly-Val-Arg-Gly-Leu (GA[Hyp]GKDGVRGL) [SEQ ID No. 17, collagen peptide comprising 11 amino acids] | 42% | 33% | – | – | 24% | 31%
6 | Gly-Ala-4Hyp-Gly-Lys-Asp-Gly-Val-Arg-Gly-Leu-Thr-Gly-4Hyp-Ile-Gly-4Hyp-4Hyp-Gly-4Hyp-Ala-Gly-Ala-4Hyp-Gly-Asp-Lys-Gly-Glu-Ala-Gly-4Hyp-Ser (GA[Hyp]GKDGVRGLTG[Hyp]IG[Hyp][Hyp]G[Hyp]AGA[Hyp]GDKGEAG[Hyp]S) [SEQ ID No. 25, collagen peptide comprising 33 amino acids] | 27% | 19% | – | – | 23% | –
7 | Gly-Ala-4Hyp-Gly-Lys-Asp-Gly-Val-Arg-Gly-Leu-Thr-Gly-Pro-Ile-Gly-Pro-4Hyp-Gly-Pro-Ala-Gly-Ala (GA[Hyp]GKDGVRGLTGPIGP[Hyp]GPAGA) [SEQ ID No. 18, collagen peptide comprising 23 amino acids] | 40% | 32% | – | – | 31% | 25%
8 | Gly-Ala-4Hyp-Gly-Lys-Asp-Gly-Val-Arg-Gly-Leu-Thr-Gly-Pro-Ile-Gly-Pro-4Hyp-Gly-Pro-Ala-Gly-Ala-4Hyp (GA[Hyp]GKDGVRGLTGPIGP[Hyp]GPAGA[Hyp]) [SEQ ID No. 8, collagen peptide comprising 24 amino acids] | 37% | 24% | – | – | 23% | 20%
9 | Gly-Ala-4Hyp-Gly-Lys-Asp-Gly-Val-Arg-Gly-Leu-Thr-Gly-Pro-Ile-Gly-Pro-4Hyp-Gly-Pro-Ala-Gly-Ala-4Hyp-Gly-Asp-Lys-Gly-Glu-Ala-Gly-Pro-Ser (GA[Hyp]GKDGVRGLTGPIGP[Hyp]GPAGA[Hyp]GDKGEAGPS) [SEQ ID No. 7, collagen peptide comprising 33 amino acids] | 42% | 28% | – | – | 41% | 30%
10 | Gly-Ala-4Hyp-Gly-Lys-Asp-Gly-Val-Arg-Gly-Leu-Thr-Gly-Pro-Ile-Gly-Pro-4Hyp-Gly-Pro-Ala-Gly-Ala-4Hyp-Gly-Asp-Lys-Gly-Glu-Ala-Gly-Pro-Ser-Gly-Pro-Ala-Gly-Pro-Thr-Gly-Ala-Arg-Gly-Ala-4Hyp-Gly-Asp-Arg-Gly-Glu-4Hyp-Gly-Pro-4Hyp-Gly-Pro-Ala-Gly [SEQ ID No. 19] | 40% | 37% | – | – | 29% | 18%
11 | Gly-Ala-4Hyp-Gly-Lys-Asp-Gly-Val-Arg-Gly-Leu-Thr-Gly-Pro-Ile-Gly-Pro-4Hyp-Gly-Pro-Ala-Gly-Ala-4Hyp-Gly-Asp-Lys-Gly-Glu-Ala-Gly-Pro-Ser-Gly-Pro-Ala-Gly-Pro-Thr-Gly-Ala-Arg-Gly-Ala-4Hyp-Gly-Asp-Arg-Gly-Glu-4Hyp-Gly-Pro-4Hyp-Gly-Pro-Ala-Gly-Phe-Ala-Gly-Pro-4Hyp-Gly-Ala-Asp-Gly-Gln-4Hyp-Gly-Ala-Lys-Gly-Glu-Pro-Gly-Asp-Ala-Gly-Ala-Lys-Gly-Asp-Ala-Gly-Pro-Pro-Gly-Pro-Ala [SEQ ID No. 20] | 37% | – | – | – | 29% | 15%
12 | Gly-Leu-4Hyp-Gly-Lys-Met-Gly-Val-Phe-Gly-Leu-Thr-Gly-Pro-Ile-Gly-Pro-4Hyp-Gly-Pro-Trp-Gly-Val-4Hyp-Gly-His-Lys-Gly-Tyr-Leu-Gly-Pro-Thr (GL[Hyp]GKMGVFGLTGPIGP[Hyp]GPWGV[Hyp]GHKGYLGPT) [SEQ ID No. 27, collagen peptide comprising 33 amino acids] | 27% | – | – | – | 26% | –
13 | Gly-Leu-4Hyp-Gly-Lys-Tyr-Gly-Val-His-Gly-Leu-Thr-Gly-Pro-Leu-Gly-Pro-4Hyp-Gly-Pro-Met-Gly-Ile-4Hyp-Gly-Trp-Lys-Gly-Phe-Val-Gly-Pro-Thr (GL[Hyp]GKYGVHGLTGPLGP[Hyp]GPMGI[Hyp]GWKGFVGPT) [SEQ ID No. 28, collagen peptide comprising 33 amino acids] | 22% | – | – | – | 22% | –
14 | Gly-Pro-4Hyp-Gly-Pro-Leu-Gly-Met-Lys-Gly-Leu-4Hyp-Gly-Val-Trp-Gly-Pro-Phe-Gly-Leu-4Hyp-Gly-Thr-Pro-Gly-Pro-His-Gly-Ile-Thr-Gly-Tyr-Lys-Gly-Val [SEQ ID No. 29] | 21% | – | – | – | 21% | –
15 | Gly-Pro-4Hyp-Gly-Pro-Val-Gly-Thr-Lys-Gly-Leu-4Hyp-Gly-Phe-Tyr-Gly-Pro-Leu-Gly-Ile-4Hyp-Gly-His-Pro-Gly-Pro-Trp-Gly-Met-Leu-Gly-Thr-Lys-Gly-Val [SEQ ID No. 30] | 21% | – | – | – | 22% | –
16 | His-His-His-His-His-His-Gly-Ala-4Hyp-Gly-Lys-Asp-Gly-Val-Arg-Gly-Leu-Thr-Gly-Pro-Ile-Gly-Pro-4Hyp-Gly-Pro-Ala-Gly-Ala-4Hyp-Gly-Asp-Lys-Gly-Glu-Ala-Gly-Pro-Ser (HHHHHHGA[Hyp]GKDGVRGLTGPIGP[Hyp]GPAGA[Hyp]GDKGEAGPS) [SEQ ID No. 26, collagen peptide comprising 39 amino acids] | 12% | 12% | – | – | 6% | –

Source: patent publication US20220073592A1, “SYNTHETIC AND RECOMBINANT COLLAGEN PEPTIDES HAVING BIOLOGICAL ACTIVITY” (GELITA AG, priority 2018, published 2022)
